From BindingDB's records for doi:10.1021/acs.jnatprod.5b00508 (Korea University, 2015)

Key:
[1] = Inhibition of amyloid beta (25 to 35 residues) (unknown origin) aggregate-induced toxicity in rat PC12 cells preincubated for 1 hr followed by amyloid beta challenge measured after 24 hrs by MTT assay
[2] = Inhibition of amyloid beta (1 to 42 residues) (unknown origin) aggregate-induced toxicity in rat PC12 cells assessed as cell viability at 4 to 100 ug/ml pre-incubated for 24 hrs with Abeta ( 1 to 42) followed by compound-Abeta (1 to 42) mixture addition to cells and measured after 24 hrs by MTT assay

Row | Compound | EC50 [1] | EC50 [2]
1 | CC(=O)O[C@H]1CC(=O)OC(C)(C)[C@@H]2CC[C@]3(C)[C@H](CC=C(C)[C@@]34C[C@]3(OC(C)=C(C)C3=O)C(=O)O4)[C@@]12C | 113 µM | 
2 | C[C@@H]1C[C@@]23C[C@H]4C(C)(C)[C@@]5(C[C@]4(CN2C1=O)NC3=O)C(=O)Nc1c5ccc2c1C=CC(C)(C)O2 | > 300 µM | 97.9 µM
3 | CC1=CC[C@@H]2[C@@]3(C)[C@@H](O)CC(=O)OC(C)(C)[C@@H]3CC[C@@]2(C)[C@]12Cc1c(c(C)c(C)oc1=O)O2 | > 300 µM | 
4 | CC1=CC[C@@H]2[C@@]3(C)C=CC(=O)OC(C)(C)[C@@H]3CC[C@@]2(C)[C@]12Cc1c(c(C)c(C)oc1=O)O2 | 65.4 µM | 
5 | CN1C(=O)[C@@]23CCC(=O)N2C[C@@]12C[C@@]1(C(=O)Nc4c1ccc1c4C=CC(C)(C)O1)C(C)(C)[C@@H]2C3 | 150 µM | 89.9 µM
6 | CC1(C)C=Cc2cc(C(=O)O)ccc2O1 | 252 µM | 
7 | C[C@H]1CN2C[C@]34C[C@@]5(C(=O)Nc6c5ccc5c6OC=CC(C)(C)O5)C(C)(C)[C@@H]3C[C@@]2(C1)C(=O)N4C | > 300 µM | 105 µM
8 | C[C@H]1CN2C[C@]34C[C@@]5(C(=O)Nc6c5ccc5c6C=CC(C)(C)O5)C(C)(C)[C@@H]3C[C@@]2(C1)C(=O)N4C | > 300 µM | 
9 | C[C@@H]1C[C@@]23C[C@H]4C(C)(C)[C@@]5(C[C@]4(CN2C1=O)N(C)C3=O)C(=O)Nc1c5ccc2c1C=CC(C)(C)O2 | > 300 µM | 
10 | C[C@@H]1C[C@@]23C[C@H]4C(C)(C)[C@@]5(C[C@]4(CN2C1=O)NC3=O)C(=O)Nc1c5ccc2c1OC=CC(C)(C)O2 | > 300 µM | 
11 | O=C(/C=C/c1ccc(O)c(O)c1)O[C@H](Cc1ccc(O)c(O)c1)C(=O)O [Rosmarinic acid, 2] | 68.1 µM | 57.2 µM
